± gives the standard deviation of the averaged measurements.
Experiments:
[1] = compound: O=C(O)CC[C@H]1CC[C@@](c2cc(F)ccc2F)(S(=O)(=O)c2ccc(Cl)cc2)CC1 [MK0752]; assay: surviving fraction relative to DMSO-only wells; higher = less growth inhibition; conditions: exposure time: 5 days
Procedure, shortened: (§1)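 A line counted only if its three screens reached replicate Pearson r >0.7 and median Z' >0.3. Tumour cells in log phase were seeded at 250–500 per well in 384-well plates and, after 24 hours, kept in continuous contact with inhibitors at 0.5, 1, 5, 10, 50, 100, 500 and 1000 nM for five days. Surviving fraction was taken from CellTiter-Glo luminescence relative to the median of DMSO-only wells.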

[2] = compound: O=C(NOCC1CC1)c1ccc(F)c(F)c1Nc1ccc(I)cc1Cl; assay: as above; conditions: exposure time: 5 days
Procedure, shortened: as §1

Row | Test System | surviving fraction ([1]; 0.5 nM) | surviving fraction ([1]; 1 nM) | surviving fraction ([1]; 5 nM) | surviving fraction ([1]; 10 nM) | surviving fraction ([1]; 50 nM) | surviving fraction ([1]; 100 nM) | surviving fraction ([1]; 500 nM) | surviving fraction ([1]; 1000 nM) | surviving fraction ([2]; 0.5 nM) | surviving fraction ([2]; 1 nM) | surviving fraction ([2]; 5 nM) | surviving fraction ([2]; 10 nM) | surviving fraction ([2]; 50 nM) | surviving fraction ([2]; 100 nM) | surviving fraction ([2]; 500 nM) | surviving fraction ([2]; 1000 nM)
1 | 22RV1 PROSTATE | 1.08 ± 0.069 | 1.1 ± 0.012 | 1.09 ± 0.021 | 1.04 ± 0.058 | 1.07 ± 0.092 | 1.11 ± 0.07 | 1.09 ± 0.044 | 1.08 ± 0.026 | 0.93 ± 0.034 | 1.03 ± 0.044 | 0.917 ± 0.04 | 0.851 ± 0.038 | 0.714 ± 0.068 | 0.6767 ± 0.0032 | 0.631 ± 0.037 | 0.526 ± 0.019
2 | 93VU HEADNECK | 1.19 ± 0.15 | 1.25 ± 0.054 | 1.14 ± 0.041 | 1.23 ± 0.086 | 1.16 ± 0.016 | 1.23 ± 0.088 | 1.13 ± 0.051 | 1.18 ± 0.1 | 0.859 ± 0.026 | 0.873 ± 0.089 | 0.979 ± 0.061 | 0.828 ± 0.051 | 0.785 ± 0.074 | 0.751 ± 0.037 | 0.417 ± 0.036 | 0.311 ± 0.097
3 | 143B BONE | 1 ± 0.028 | 1.04 ± 0.03 | 1.022 ± 0.0064 | 1.05 ± 0.015 | 1.02 ± 0.044 | 1.05 ± 0.026 | 1.01 ± 0.02 | 1.06 ± 0.023 | 0.887 ± 0.14 | 0.98 ± 0.0057 | 0.97 ± 0.018 | 1 ± 0.037 | 0.857 ± 0.13 | 0.957 ± 0.037 | 0.841 ± 0.028 | 0.542 ± 0.021
4 | A549 LUNG | 1.02 ± 0.053 | 1.03 ± 0.043 | 1.06 ± 0.059 | 1.02 ± 0.062 | 1.06 ± 0.054 | 1.09 ± 0.061 | 1.07 ± 0.063 | 1.1 ± 0.038 | 0.931 ± 0.014 | 0.95667 ± 0.00058 | 0.947 ± 0.017 | 0.956 ± 0.019 | 0.964 ± 0.027 | 1.01 ± 0.02 | 0.93 ± 0.013 | 0.886 ± 0.015
5 | ASKA SYNOVIAL | 1.12 ± 0.023 | 1.16 ± 0.02 | 1.24 ± 0.038 | 1.22 ± 0.025 | 1.22 ± 0.11 | 1.23 ± 0.1 | 1.14 ± 0.087 | 1.14 ± 0.017 | 0.658 ± 0.015 | 1.08 ± 0.052 | 1.08 ± 0.049 | 1.14 ± 0.035 | 0.847 ± 0.019 | 1.11 ± 0.073 | 0.973 ± 0.034 | 0.903 ± 0.029
6 | BT20 BREAST | 1.16 ± 0.11 | 1.03 ± 0.11 | 1.09 ± 0.12 | 1.1 ± 0.17 | 1.03 ± 0.17 | 0.941 ± 0.19 | 0.914 ± 0.096 | 0.829 ± 0.19 | 0.994 ± 0.099 | 1.06 ± 0.055 | 1.03 ± 0.091 | 0.962 ± 0.13 | 0.905 ± 0.12 | 0.928 ± 0.055 | 0.864 ± 0.061 | 0.849 ± 0.069
7 | BT549 BREAST | 1.08 ± 0.14 | 1.09 ± 0.14 | 1.1 ± 0.18 | 1.11 ± 0.15 | 0.986 ± 0.1 | 1.04 ± 0.07 | 0.89 ± 0.095 | 1.03 ± 0.075 | 1.03 ± 0.11 | 1.07 ± 0.088 | 1.08 ± 0.23 | 1.14 ± 0.03 | 1.15 ± 0.062 | 1.21 ± 0.044 | 1.3 ± 0.067 | 1.23 ± 0.16
8 | CADOES1 SOFT TISSUE | 0.976 ± 0.09 | 1.02 ± 0.13 | 0.994 ± 0.073 | 0.953 ± 0.054 | 1.02 ± 0.14 | 0.849 ± 0.041 | 0.801 ± 0.086 | 0.931 ± 0.11 | 0.913 ± 0.11 | 0.844 ± 0.075 | 0.894 ± 0.15 | 0.86 ± 0.081 | 0.903 ± 0.061 | 0.918 ± 0.1 | 0.875 ± 0.14 | 0.746 ± 0.14
9 | CAL51 BREAST | 1.02 ± 0.015 | 0.995 ± 0.035 | 0.972 ± 0.027 | 0.967 ± 0.064 | 1.05 ± 0.013 | 0.992 ± 0.038 | 1.02 ± 0.036 | 1.02 ± 0.041 | 0.975 ± 0.021 | 1 ± 0.032 | 0.981 ± 0.055 | 0.993 ± 0.017 | 0.934 ± 0.058 | 0.944 ± 0.042 | 0.878 ± 0.032 | 0.8495 ± 0.0082
10 | CAL120 BREAST | 1.009 ± 0.0055 | 1 ± 0.047 | 1.025 ± 0.0088 | 1.01 ± 0.024 | 1.03 ± 0.018 | 1.07 ± 0.028 | 1.023 ± 0.0088 | 1 ± 0.054 | 0.928 ± 0.018 | 0.9302 ± 0.008 | 0.966 ± 0.025 | 0.908 ± 0.015 | 0.899 ± 0.036 | 0.898 ± 0.015 | 0.8322 ± 0.0043 | 0.805 ± 0.01
11 | CASKI CERVIX | 0.896 ± 0.038 | 0.973 ± 0.061 | 1.01 ± 0.047 | 0.952 ± 0.03 | 1.08 ± 0.045 | 1.09 ± 0.061 | 0.987 ± 0.054 | 0.943 ± 0.057 | 0.931 ± 0.018 | 0.944 ± 0.038 | 0.95 ± 0.051 | 0.881 ± 0.032 | 0.766 ± 0.022 | 0.685 ± 0.045 | 0.474 ± 0.013 | 0.454 ± 0.02
12 | CHLA90 AUTONOMIC GANGLIA | 0.984 ± 0.034 | 1.05 ± 0.039 | 1.05 ± 0.04 | 1.009 ± 0.0045 | 1.01 ± 0.026 | 0.952 ± 0.044 | 1.1 ± 0.037 | 1.09 ± 0.018 | 0.469 ± 0.022 | 0.987 ± 0.003 | 0.825 ± 0.05 | 0.894 ± 0.036 | 0.478 ± 0.044 | 0.763 ± 0.028 | 0.662 ± 0.044 | 0.69 ± 0.015
13 | CME SYNOVIAL | 1.27 ± 0.23 | 1.31 ± 0.15 | 1.29 ± 0.09 | 1.39 ± 0.029 | 1.46 ± 0.22 | 1.47 ± 0.2 | 1.24 ± 0.11 | 1.34 ± 0.14 | 0.301 ± 0.075 | 1.11 ± 0.064 | 1.04 ± 0.15 | 1.27 ± 0.12 | 0.584 ± 0.07 | 1.22 ± 0.17 | 0.993 ± 0.16 | 1.02 ± 0.27
14 | COLO320DM LARGE INTESTINE | 1.09 ± 0.11 | 1.18 ± 0.065 | 1.16 ± 0.1 | 1.18 ± 0.049 | 1.14 ± 0.01 | 1.2 ± 0.087 | 1.17 ± 0.096 | 1.25 ± 0.27 | 0.544 ± 0.018 | 1.09 ± 0.032 | 0.98 ± 0.094 | 1.09 ± 0.094 | 0.747 ± 0.053 | 1.15 ± 0.029 | 1.11 ± 0.063 | 1.15 ± 0.043
15 | DU4475 BREAST | 1.04 ± 0.097 | 0.997 ± 0.16 | 0.927 ± 0.19 | 1.03 ± 0.21 | 0.967 ± 0.22 | 0.911 ± 0.26 | 0.976 ± 0.35 | 1.05 ± 0.38 | 0.859 ± 0.24 | 0.791 ± 0.12 | 0.794 ± 0.29 | 0.674 ± 0.064 | 0.49 ± 0.15 | 0.199 ± 0.11 | 0.0277 ± 0.0074 | 0.0263 ± 0.0078
16 | H23 LUNG | 1.064 ± 0.004 | 1.11 ± 0.053 | 1.1 ± 0.061 | 1.07 ± 0.063 | 1.104 ± 0.0052 | 1.17 ± 0.1 | 1.103 ± 0.0038 | 1.13 ± 0.058 | 0.922 ± 0.025 | 0.931 ± 0.027 | 0.834 ± 0.0027 | 0.741 ± 0.062 | 0.484 ± 0.029 | 0.413 ± 0.01 | 0.341 ± 0.0071 | 0.342 ± 0.0067
17 | HCC38 BREAST | 1.22 ± 0.34 | 1.15 ± 0.21 | 1.27 ± 0.18 | 1.24 ± 0.044 | 1.21 ± 0.15 | 1.34 ± 0.28 | 1.12 ± 0.03 | 1.1 ± 0.16 | 1.14 ± 0.17 | 1.11 ± 0.19 | 1.01 ± 0.11 | 1.14 ± 0.093 | 0.998 ± 0.2 | 1.03 ± 0.22 | 1.21 ± 0.29 | 1.07 ± 0.14
18 | HCC70 BREAST | 1.1 ± 0.079 | 1.07 ± 0.05 | 1.132 ± 0.01 | 1.08 ± 0.029 | 1.11 ± 0.073 | 1.08 ± 0.13 | 1.03 ± 0.055 | 0.924 ± 0.074 | 0.939 ± 0.029 | 0.963 ± 0.03 | 1.02 ± 0.049 | 0.956 ± 0.058 | 0.818 ± 0.041 | 0.773 ± 0.052 | 0.601 ± 0.022 | 0.528 ± 0.033
19 | HCC78 LUNG | 0.916 ± 0.12 | 0.966 ± 0.16 | 1.08 ± 0.16 | 1.07 ± 0.12 | 1.17 ± 0.062 | 1.06 ± 0.15 | 0.839 ± 0.24 | 0.957 ± 0.17 | 0.787 ± 0.12 | 0.836 ± 0.085 | 0.841 ± 0.11 | 0.832 ± 0.25 | 0.898 ± 0.17 | 0.885 ± 0.15 | 0.486 ± 0.058 | 0.632 ± 0.097
20 | HCC202 BREAST | 1.28 ± 0.66 | 0.775 ± 0.51 | 0.94 ± 0.78 | 1.27 ± 0.18 | 1.23 ± 0.21 | 1.21 ± 0.1 | 1.31 ± 0.069 | 1.39 ± 0.36 | 1.38 ± 0.41 | 1.49 ± 0.64 | 1.47 ± 0.2 | 1.28 ± 0.26 | 1.46 ± 0.16 | 1.31 ± 0.099 | 1.37 ± 0.38 | 1.57 ± 0.043

Reference: the supplement of paper PMC6045584
